Results reported in ChEMBL document CHEMBL1201862, “PubChem BioAssay data set” (2004).
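96-well plates; 48 h exposure; 5 concentrations. Endpoints by linear interpolation between flanking doses. Not reached: highest tested concentration assigned. Here, GI50 denotes the concentration required for 50% inhibition of growth.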 Active and inactive are the calls of the source. Rule as the data show it: active = GI50 up to about 1.1 µM and inactive = higher.

Legend:
Experiment in all cases: NCI-60 cell line screen, 48 h
BT-549 = system: BT-549
CAKI-1 = system: CAKI-1
DU-145 = system: DU-145
EKVX = system: EKVX
HCT-15 = system: HCT-15
HOP-62 = system: HOP-62
HOP-92 = system: HOP-92
HT-29 = system: HT-29
Hs-578T = system: Hs-578T
MCF7 = system: MCF7
MDA-MB-231 = system: MDA-MB-231
MDA-MB-435 = system: MDA-MB-435
MDA-N = system: MDA-N
NCI-H23 = system: NCI-H23
SF-268 = system: SF-268
SK-OV-3 = system: SK-OV-3
U-251 = system: U-251
UACC-257 = system: UACC-257
SF-539 = system: SF-539
T47D = system: T47D

Measured: GI50

O=C1NC(=S)N/C1=C\c1ccc(Br)s1
91.2 µM: HCT-15
inactive: BT-549 40.4 µM | CAKI-1 70.6 µM | DU-145 > 100 µM | EKVX 10.3 µM | HOP-62 > 100 µM | HOP-92 82 µM | HT-29 85.1 µM | Hs-578T 34 µM | MCF7 > 100 µM | MDA-MB-231 > 100 µM | MDA-MB-435 58.6 µM | MDA-N > 100 µM | NCI-H23 > 100 µM | SF-268 > 100 µM | SK-OV-3 > 100 µM | U-251 > 100 µM | UACC-257 61 µM

S=C(NCc1ccccc1)c1nc[nH]c1C(=S)NCc1ccccc1
inactive: BT-549 13.3 µM | CAKI-1 5.47 µM | DU-145 9.27 µM | EKVX 4.34 µM | HOP-62 10 µM | HOP-92 1.88 µM | HT-29 6.84 µM | MCF7 2.55 µM | MDA-MB-231 10 µM | MDA-MB-435 6.62 µM | MDA-N 7.74 µM | NCI-H23 6.93 µM | SF-268 6.19 µM | SF-539 10.4 µM | SK-OV-3 12.7 µM | T47D 4.35 µM | U-251 5.87 µM | UACC-257 10.1 µM
3.83 µM: HCT-15

Cc1nnc2sc(Cl)nn12
19.3 µM: HCT-15
inactive: BT-549 17.7 µM | CAKI-1 21 µM | DU-145 34.4 µM | EKVX 24.9 µM | HOP-62 38 µM | HT-29 16.7 µM | Hs-578T 39.5 µM | MCF7 13.3 µM | MDA-MB-231 22.1 µM | MDA-MB-435 7.64 µM | MDA-N 20.2 µM | NCI-H23 17.3 µM | SF-539 20.9 µM | SK-OV-3 17.3 µM | T47D 22.9 µM | U-251 16.4 µM | UACC-257 > 10 µM

CNc1ccc(N)cc1C(=O)N1CCC[C@H]1CO
> 100 µM: HCT-15
inactive: BT-549 > 100 µM | CAKI-1 > 100 µM | DU-145 > 100 µM | EKVX > 100 µM | HOP-62 > 100 µM | HT-29 > 100 µM | Hs-578T > 100 µM | MCF7 > 100 µM | MDA-MB-231 > 100 µM | MDA-MB-435 > 100 µM | MDA-N > 100 µM | NCI-H23 > 100 µM | SF-268 > 100 µM | SF-539 > 100 µM | SK-OV-3 > 100 µM | T47D > 100 µM | U-251 > 100 µM | UACC-257 > 100 µM

N/C(=N\OC(=O)NC(Cl)=C(Cl)Cl)c1cc(C(F)(F)F)cc(C(F)(F)F)c1
inactive: BT-549 21.8 µM | CAKI-1 16.7 µM | DU-145 13.2 µM | EKVX 13.7 µM | HOP-62 17.9 µM | HOP-92 14.8 µM | HT-29 16.9 µM | MCF7 25.1 µM | MDA-MB-231 15.8 µM | MDA-MB-435 19.4 µM | MDA-N 21.5 µM | NCI-H23 34.9 µM | SF-268 18.7 µM | SF-539 16 µM | SK-OV-3 28.4 µM | T47D 6.21 µM | U-251 16 µM | UACC-257 16.1 µM
17.3 µM: HCT-15

C=CC(=O)Nc1ccc(NC(=O)C=C)c2c1C(=O)c1ccccc1C2=O
41.9 µM: HCT-15
inactive: BT-549 29.9 µM | EKVX > 100 µM | HOP-62 > 100 µM | HT-29 45.5 µM | Hs-578T > 100 µM | MCF7 21 µM | MDA-MB-231 97.7 µM | MDA-MB-435 > 10 µM | MDA-N 36.1 µM | NCI-H23 48.6 µM | SF-539 24.8 µM | T47D > 100 µM | U-251 20.9 µM | UACC-257 > 100 µM

CC(=O)OC1=C(c2ccccc2)S(=O)(=O)c2ccccc21
inactive: BT-549 > 100 µM | CAKI-1 > 100 µM | DU-145 > 100 µM | EKVX > 100 µM | HOP-62 > 100 µM | HOP-92 > 100 µM | HT-29 > 100 µM | Hs-578T > 100 µM | MCF7 > 100 µM | MDA-MB-231 > 100 µM | MDA-MB-435 > 100 µM | NCI-H23 > 100 µM | SF-268 > 100 µM | SF-539 > 100 µM | T47D > 100 µM | U-251 > 100 µM | UACC-257 > 100 µM
> 100 µM: HCT-15

N#Cc1ncn(CCO)c1N
> 100 µM: HCT-15
inactive: BT-549 > 100 µM | CAKI-1 > 100 µM | DU-145 > 100 µM | EKVX > 100 µM | HOP-62 > 100 µM | HT-29 > 100 µM | Hs-578T > 100 µM | MCF7 > 100 µM | MDA-MB-231 > 100 µM | MDA-MB-435 > 100 µM | MDA-N > 100 µM | NCI-H23 > 100 µM | SF-268 > 100 µM | SF-539 > 100 µM | SK-OV-3 > 100 µM | T47D > 100 µM | U-251 > 100 µM | UACC-257 > 100 µM

Cn1ccnc1Oc1ccc(Cl)cc1
inactive: BT-549 16.9 µM | DU-145 15.9 µM | EKVX 19.8 µM | HOP-62 26.2 µM | HOP-92 11 µM | HT-29 13.7 µM | Hs-578T 24.4 µM | MCF7 12 µM | MDA-MB-231 14.8 µM | MDA-MB-435 12.4 µM | NCI-H23 17.5 µM | SF-268 28.5 µM | SF-539 11.9 µM | SK-OV-3 47.4 µM | T47D 2.18 µM | U-251 17.9 µM | UACC-257 9.75 µM
11.7 µM: HCT-15

C[C@@H]1CCC2C(C)(C)C(/C=C\C=O)C3(C)OC213 (some centres undefined)
25.4 µM: HCT-15
inactive: BT-549 34.8 µM | CAKI-1 > 100 µM | DU-145 29.1 µM | EKVX 37.8 µM | HOP-62 38.9 µM | HOP-92 26.5 µM | HT-29 26.4 µM | Hs-578T 21.5 µM | MCF7 40.6 µM | MDA-MB-231 49.2 µM | MDA-MB-435 27.5 µM | MDA-N 26 µM | NCI-H23 35.6 µM | SF-268 27.3 µM | SK-OV-3 44.6 µM | U-251 28.6 µM | UACC-257 45.8 µM

N#CC1(c2ccccc2)CCN(C2(c3ccccc3)CCCCC2)CC1
inactive: BT-549 > 100 µM | CAKI-1 > 100 µM | DU-145 > 100 µM | EKVX > 100 µM | HOP-62 > 100 µM | HT-29 > 100 µM | Hs-578T 44 µM | MCF7 > 100 µM | MDA-MB-231 > 100 µM | MDA-MB-435 > 100 µM | MDA-N > 100 µM | NCI-H23 > 100 µM | SF-268 > 100 µM | SK-OV-3 > 100 µM | T47D > 100 µM | U-251 > 100 µM | UACC-257 > 100 µM
> 100 µM: HCT-15

CCOC(=O)c1nnsc1N/N=C\c1ccc([N+](=O)[O-])cc1
> 100 µM: HCT-15
inactive: BT-549 > 100 µM | DU-145 > 100 µM | EKVX > 100 µM | HOP-62 60 µM | HT-29 > 100 µM | Hs-578T > 100 µM | MCF7 > 100 µM | MDA-MB-231 79.8 µM | MDA-MB-435 > 100 µM | MDA-N > 100 µM | NCI-H23 > 100 µM | SF-268 77.4 µM | SK-OV-3 > 100 µM | T47D > 100 µM | U-251 > 100 µM | UACC-257 > 100 µM

COc1ccc([S+]([O-])Cc2cc(OC)c(OC)c(OC)c2)cc1 (centres undefined)
30.4 µM: HCT-15
inactive: BT-549 46.7 µM | CAKI-1 56.9 µM | DU-145 > 100 µM | EKVX > 100 µM | HOP-62 45.5 µM | HT-29 31.3 µM | Hs-578T > 100 µM | MCF7 39.5 µM | MDA-MB-231 84.5 µM | MDA-MB-435 5.96 µM | NCI-H23 76.2 µM | SF-268 97.5 µM | SF-539 56.5 µM | SK-OV-3 > 100 µM | T47D > 100 µM | U-251 60.3 µM | UACC-257 > 100 µM

CCN1CCCC(Nc2cc(C)nc(NC(=N)Nc3ccc(Cl)c(Cl)c3)n2)C1 (centres undefined)
1.74 µM: HCT-15
inactive: BT-549 1.64 µM | CAKI-1 1.56 µM | DU-145 4.43 µM | EKVX 2.86 µM | HOP-62 1.43 µM | HOP-92 1.31 µM | HT-29 3.06 µM | Hs-578T 2.02 µM | MCF7 1.79 µM | MDA-MB-231 1.62 µM | MDA-MB-435 1.49 µM | MDA-N 1.67 µM | NCI-H23 1.77 µM | SF-268 1.96 µM | SF-539 1.88 µM | SK-OV-3 2.78 µM | U-251 1.3 µM

CN1CCCOC(c2ccc(Cl)cc2)O1 (centres undefined)
> 100 µM: HCT-15
inactive: BT-549 > 100 µM | CAKI-1 > 100 µM | DU-145 > 100 µM | EKVX > 100 µM | HOP-62 > 100 µM | HOP-92 65 µM | HT-29 > 100 µM | MCF7 > 100 µM | MDA-MB-231 > 100 µM | MDA-MB-435 > 100 µM | MDA-N > 100 µM | NCI-H23 > 100 µM | SF-268 > 100 µM | SF-539 > 100 µM | SK-OV-3 > 100 µM | T47D > 100 µM | U-251 > 100 µM | UACC-257 > 100 µM

COC(=O)C1=C(C(=O)OC)SC(=C2c3ccsc3-c3sccc32)S1
53.7 µM: HCT-15
inactive: BT-549 29.4 µM | CAKI-1 > 100 µM | DU-145 > 100 µM | EKVX 27.3 µM | HOP-62 19.7 µM | HT-29 22.8 µM | Hs-578T 14.9 µM | MCF7 27.4 µM | MDA-MB-231 > 100 µM | MDA-MB-435 > 100 µM | MDA-N 70.3 µM | NCI-H23 16.1 µM | SF-268 19.9 µM | SF-539 20.7 µM | SK-OV-3 12.3 µM | U-251 28.3 µM | UACC-257 64.4 µM
